Measured values published in article PMC7044277 (Nature Communications, 2020).
Several values for one entry are separate records, joined by “and”; a condition that tells them apart may be missing. Equal values may be shown once.

What was measured:
[1] = target: DRD2 (D2 long receptor) wild-type (Homo sapiens, UniProt P14416); experiment: Radioligand competition binding, [3H]-N-methylspiperone, HEK293T membranes; conditions: DRD2; [3H]-methylspiperone (0.8-1.0 nM); read-out: Ki
DRD3 wild-type = DRD3 wild-type (Homo sapiens, UniProt P35462); experiment: Radioligand competition binding, [3H]-N-methylspiperone
DRD3 wild-type, sequence (P35462 whole entry): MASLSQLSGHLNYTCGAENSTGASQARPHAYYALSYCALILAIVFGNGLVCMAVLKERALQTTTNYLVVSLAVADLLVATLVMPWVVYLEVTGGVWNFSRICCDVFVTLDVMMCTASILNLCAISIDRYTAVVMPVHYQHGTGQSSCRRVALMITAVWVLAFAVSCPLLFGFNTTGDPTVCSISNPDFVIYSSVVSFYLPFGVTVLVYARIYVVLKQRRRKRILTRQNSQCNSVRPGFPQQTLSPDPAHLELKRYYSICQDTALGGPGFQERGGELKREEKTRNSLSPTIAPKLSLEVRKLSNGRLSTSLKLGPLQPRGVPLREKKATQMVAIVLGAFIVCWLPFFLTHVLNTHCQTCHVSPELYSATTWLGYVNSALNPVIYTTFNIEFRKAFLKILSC

[2] = target: T1, DRD4 (D4.4 variant) wild-type (Homo sapiens, UniProt P21917); experiment: as above; conditions: DRD4; [3H]-methylspiperone (0.8-1.0 nM); read-out: Ki
T1 sequence (P21917 1-419): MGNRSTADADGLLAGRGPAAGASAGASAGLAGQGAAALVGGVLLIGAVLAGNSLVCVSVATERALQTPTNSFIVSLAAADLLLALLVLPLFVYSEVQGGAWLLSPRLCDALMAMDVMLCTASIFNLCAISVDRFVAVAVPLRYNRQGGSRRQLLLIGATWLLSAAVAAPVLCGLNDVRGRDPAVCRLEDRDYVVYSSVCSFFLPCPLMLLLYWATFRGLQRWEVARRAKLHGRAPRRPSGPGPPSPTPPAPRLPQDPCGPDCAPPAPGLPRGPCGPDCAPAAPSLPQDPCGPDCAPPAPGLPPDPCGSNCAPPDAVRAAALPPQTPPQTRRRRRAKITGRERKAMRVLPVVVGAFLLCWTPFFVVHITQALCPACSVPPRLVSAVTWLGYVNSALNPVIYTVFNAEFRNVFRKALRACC

DRD3 F1063.28A [3] = target: T2, DRD3 F1063.28A (Homo sapiens, UniProt P35462, F106A); experiment: biochemical; assay type: binding; conditions: DRD3 F1063.28A; read-out: Ki
T2 sequence (P35462 whole entry F106A): as the sequence (P35462 whole entry) above, with F106A counted along it

DRD2 (D2 long receptor) [4] = target: T3, DRD2 (D2 long receptor) (Homo sapiens, UniProt P14416); experiment: Gαi/o-mediated cAMP inhibition (GloSensor split-luciferase cAMP reporter), HEK293T; assay type: cell-based; conditions: for response, Fig_S11d dose-response source data: replicate values;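 on all read-outs here: compounds applied 15 min at room temperature, then luciferin plus 400 nM isoproterenol to raise cAMP through endogenous β2-adrenergic receptors, luminescence read 15 min later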
T3 sequence (P14416 whole entry): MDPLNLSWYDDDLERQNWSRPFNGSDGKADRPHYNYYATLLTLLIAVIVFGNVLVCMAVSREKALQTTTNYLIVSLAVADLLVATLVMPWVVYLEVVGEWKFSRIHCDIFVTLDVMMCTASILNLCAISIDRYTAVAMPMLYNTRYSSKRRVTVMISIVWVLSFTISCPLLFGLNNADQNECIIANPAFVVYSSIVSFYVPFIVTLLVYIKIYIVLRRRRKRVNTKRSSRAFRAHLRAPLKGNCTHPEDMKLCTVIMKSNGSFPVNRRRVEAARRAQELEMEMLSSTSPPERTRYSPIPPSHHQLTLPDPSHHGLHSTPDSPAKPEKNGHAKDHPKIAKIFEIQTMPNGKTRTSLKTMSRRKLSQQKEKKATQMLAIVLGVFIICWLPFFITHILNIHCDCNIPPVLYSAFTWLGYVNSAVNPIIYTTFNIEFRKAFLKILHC

DRD4 (D4.4 variant) [5] = target: T4, DRD4 (D4.4 variant) (Homo sapiens, UniProt P21917); experiment: Gαi/o-mediated cAMP inhibition (GloSensor); assay type: cell-based; conditions: DRD4; agonist, cAMP inhibition; read-out: EC50 ± SEM
T4 sequence (P21917 1-419): T1 sequence (P21917 1-419)

DRD2 F1103.28L [6] = target: T5, DRD2 F1103.28L (Homo sapiens, UniProt P14416, F110L); experiment: Gαi/o-mediated cAMP inhibition (GloSensor), mutant; assay type: cell-based; conditions: DRD2 F1103.28L (b138 head prints DRD2 F1063.28L)
T5 construct: expressed in transfected cells; host or cells: HEK293T (ATCC CRL-11268)
T5 sequence (P14416 whole entry F110L): as the sequence (P14416 whole entry) above, with F110L counted along it

DRD2 (D2 long receptor) [7] = target: T3, DRD2 (D2 long receptor); experiment: β-arrestin2 recruitment (Tango), HTLA cells; assay type: cell-based; conditions: for response, Fig_S11e dose-response source data: replicate values
DRD3 = DRD3 (Homo sapiens, UniProt P35462); experiment: β-arrestin2 recruitment (Tango); assay type: cell-based; conditions: DRD3; Tango; read-out: EC50 ± SEM
DRD3, sequence (P35462 whole entry): as the sequence (P35462 whole entry) above

DRD4 (D4.4 variant) [8] = target: T4, DRD4 (D4.4 variant); experiment: β-arrestin2 recruitment (Tango); assay type: cell-based; conditions: DRD4; Tango; read-out: EC50 ± SEM
DRD2 F1103.28L [9] = target: T5, DRD2 F1103.28L; experiment: β-arrestin2 recruitment (Tango), mutant; assay type: cell-based
DRD3 F1063.28A [10] = target: T2, DRD3 F1063.28A; experiment: cell-based; assay type: cell-based; conditions: DRD3 F1063.28A; Tango; read-out: EC50 ± SEM
DRD2 F1103.28A [11] = target: T6, DRD2 F1103.28A (Homo sapiens, UniProt P14416, F110A); assay type: binding; parameters: expressed in transfected cells; host or cells: HEK293T (ATCC CRL-11268); conditions: DRD2 F1103.28A; read-out: Ki
T6 sequence (P14416 whole entry F110A): as the sequence (P14416 whole entry) above, with F110A counted along it

DRD2 F1103.28A [12] = target: T6, DRD2 F1103.28A; experiment: Gαi/o-mediated cAMP inhibition (GloSensor), mutant; assay type: cell-based; parameters: expressed in transfected cells; host or cells: HEK293T (ATCC CRL-11268)
DRD2 F1103.28A [13] = target: T6, DRD2 F1103.28A; experiment: β-arrestin2 recruitment (Tango), mutant; assay type: cell-based; parameters: expressed in transfected cells; host or cells: HEK293T (ATCC CRL-11268)

DRD2 (D2 long receptor) wild-type, sequence (P14416 whole entry): as the sequence (P14416 whole entry) above

`CCOc1cccc2cc(C(C)NCC3(O)CCC3)oc12.Cl` (centres unmarked) [O4LE4] was tested, and the Ki [1] was over 10 µM, the Ki (DRD3 wild-type; DRD3, [3H]-methylspiperone (0.8-1.0 nM), read-out: Ki) was 4.07 µM and the “pKi ± SEM” value (DRD3 wild-type; DRD3 wild-type) was 5.39±0.09. It also gave a Ki [2] of over 10 µM, a Ki (DRD3 F1063.28A [3]) of over 10 µM and an EC50 (DRD2 (D2 long receptor) [4]; DRD2, agonist, Gαi/o-mediated cAMP inhibition, read-out: EC50 ± SEM) of over 10 µM. The “response, Fig_S11d dose-response source data” value (DRD2 (D2 long receptor) [4]; Log[Drug] -5) was 88.7746 and 78.3782 and 91.7272 and 89.26 and 93.9579 and 91.5672, the “response, Fig_S11d dose-response source data” value (DRD2 (D2 long receptor) [4]; Log[Drug] -5.52) was 76.2939 and 86.2437 and 82.5466 and 72.7587 and 77.8913 and 84.3113 and the “response, Fig_S11d dose-response source data” value (DRD2 (D2 long receptor) [4]; Log[Drug] -6) was 73.2172 and 67.3366 and 60.3892 and 68.228 and 67.275 and 64.901. For the same molecule, the “response, Fig_S11d dose-response source data” value (DRD2 (D2 long receptor) [4]; Log[Drug] -6.52) was 64.6321 and 59.5207 and 69.0487 and 71.8726 and 63.9982 and 65.6366, the “response, Fig_S11d dose-response source data” value (DRD2 (D2 long receptor) [4]; Log[Drug] -7) was 48.9755 and 46.0724 and 53.9876 and 53.6995 and 51.8772 and 46.0423 and the “response, Fig_S11d dose-response source data” value (DRD2 (D2 long receptor) [4]; Log[Drug] -7.52) was 42.028 and 41.6806 and 36.1226 and 35.9109 and 33.9715 and 35.5263. For the same molecule, the “response, Fig_S11d dose-response source data” value (DRD2 (D2 long receptor) [4]; Log[Drug] -8) was 31.6316 and 34.088 and 41.4325 and 32.2829 and 31.564 and 29.1733, the “response, Fig_S11d dose-response source data” value (DRD2 (D2 long receptor) [4]; Log[Drug] -8.52) was 10.5658 and 5.306 and 29.9195 and 26.7491 and 32.2996 and 23.9905 and the “response, Fig_S11d dose-response source data” value (DRD2 (D2 long receptor) [4]; Log[Drug] -9) was 29.0014 and 17.2156 and 19.2005 and 25.2611. For the same molecule, the “response, Fig_S11d dose-response source data” value (DRD2 (D2 long receptor) [4]; Log[Drug] -9.52) was 13.8163 and 7.489 and 22.6246 and 25.1441 and 33.3529 and 8.96, the “response, Fig_S11d dose-response source data” value (DRD2 (D2 long receptor) [4]; Log[Drug] -10) was 3.445 and 9.573 and 23.9738 and 15.1965 and 19.209 and the “response, Fig_S11d dose-response source data” value (DRD2 (D2 long receptor) [4]; Log[Drug] -10.52) was 10.9876 and 14.9328 and 18.3073 and 10.6825 and 15.9488. The “response, Fig_S11d dose-response source data” value (DRD2 (D2 long receptor) [4]; Log[Drug] -11) was 8.655 and 3.048 and 14.6949 and 5.45 and 17.0857, the “response, Fig_S11d dose-response source data” value (DRD2 (D2 long receptor) [4]; Log[Drug] -11.52) was 13.0471 and 8.407 and 20.4163 and the “response, Fig_S11d dose-response source data” value (DRD2 (D2 long receptor) [4]; Log[Drug] -12) was 4.834 and -8.7134 and -10.8678 and -0.937. The EC50 (DRD4 (D4.4 variant) [5]) was over 10 µM, the EC50 (DRD2 F1103.28L [6]) was over 10 µM and the “Emax relative to quinpirole response” value (DRD2 (D2 long receptor) [7]; DRD2, Tango) was 31.72%. For the same molecule, the EC50 (DRD2 (D2 long receptor) [7]; DRD2, β-arrestin2 recruitment (Tango), read-out: EC50 ± SEM) was 4.89 ± 0.671 µM, the “response, Fig_S11e dose-response source data” value (DRD2 (D2 long receptor) [7]; Log[Drug] -6.52) was 6.042 and the “response, Fig_S11e dose-response source data” value (DRD2 (D2 long receptor) [7]; Log[Drug] -7) was 4.575 and 5.092 and 4.213 and 4.207 and 4.48. For the same molecule, the “response, Fig_S11e dose-response source data” value (DRD2 (D2 long receptor) [7]; Log[Drug] -7.52) was 3.784 and 4.2108 and 4.594 and 4.116 and 3.67, the “response, Fig_S11e dose-response source data” value (DRD2 (D2 long receptor) [7]; Log[Drug] -8) was 3.831 and 3.706 and 4.29 and 4.002 and 5.34 and the “response, Fig_S11e dose-response source data” value (DRD2 (D2 long receptor) [7]; Log[Drug] -8.52) was 4.064 and 3.966 and 4.203 and 4.282 and 4.286. The “response, Fig_S11e dose-response source data” value (DRD2 (D2 long receptor) [7]; Log[Drug] -9) was 3.882 and 3.744 and 4.042 and 3.918 and 3.839, the “response, Fig_S11e dose-response source data” value (DRD2 (D2 long receptor) [7]; Log[Drug] -9.52) was 3.68 and 4.032 and 4.215 and 3.926 and 3.7929 and the “response, Fig_S11e dose-response source data” value (DRD2 (D2 long receptor) [7]; Log[Drug] -10) was 3.326 and 3.898 and 4.025 and 3.996. The “response, Fig_S11e dose-response source data” value (DRD2 (D2 long receptor) [7]; Log[Drug] -10.52) was 3.698 and 4.067 and 4.341 and 4.225 and 3.808, the “response, Fig_S11e dose-response source data” value (DRD2 (D2 long receptor) [7]; Log[Drug] -11) was 4.084 and 3.675 and 4.011 and 3.975 and 3.611 and the “response, Fig_S11e dose-response source data” value (DRD2 (D2 long receptor) [7]; Log[Drug] -11.52) was 3.79 and 4.079 and 4.55 and 4.262 and 4.155. For the same molecule, the “response, Fig_S11e dose-response source data” value (DRD2 (D2 long receptor) [7]; Log[Drug] -12) was 5.029 and 3.661 and 4.455 and 4.071 and 4.046, the EC50 (DRD3) was over 10 µM and the EC50 (DRD4 (D4.4 variant) [8]) was over 10 µM. For the same molecule, the EC50 (DRD2 F1103.28L [9]) was over 10 µM, the EC50 (DRD3 F1063.28A [10]) was over 10 µM and the Ki (DRD2 F1103.28A [11]) was over 10 µM. For the same molecule, the EC50 (DRD2 F1103.28A [12]) was over 10 µM and the EC50 (DRD2 F1103.28A [13]) was over 10 µM.
